Patent US20070253957A1, “Substituted N-Aryl-1H-Pyrazolo[3,4-B]Quinolin-4-Amines and Analogs as Activators of Caspases and Inducers of Apoptosis” (Cytovia, Inc., priority 2004, published 2007)

Test system: T-47D
Assay: Caspase cascade activation assay (N-(Ac-DEVD)-N'-ethoxycarbonyl-R110 fluorogenic substrate) in T-47D cells
Assay type: cell-based, Human
Conditions: 24 h incubation; for Caspase Activity Ratio: ratio of net RFU (T=3 h) to that of control samples, 0.16 to 10 μM final; for EC50: Homo sapiens, T47D, sigmoidal dose-response calculation, read-out: Caspase Potency EC50
Protocol: Human breast cancer cell lines T-47D was grown according to media component mixtures designated by American Type Culture Collection+10% FCS (mvitrogen Corporation), in a 5% CO2-95% humidity incubator at 37° C. T-47D and ZR-75-1 cells were maintained at a cell density between 30 and 80% confluency and for HL-60 at a cell density of 0.1 to 0.6×10^6 cells/mL. Cells were harvested at 600×g and resuspended at 0.65×10^6 cells/mL into appropriate media+10% FCS. An aliquot of 45 μL of cells was added to a well of a 96-well microtiter plate containing 5 μL of a 10% DMSO in RPMI-1640 media solution containing 1.6 to 100 μM of 1,3-dimethyl-N-(4-methoxyphenyl)-1H-pyrazolo[3,4-b]quinolin-4-amine or other test compound (0.16 to 10 μM final). An aliquot of 45 μL of cells was added to a well of a 96-well microtiter plate containing 5 μL of a 10% DMSO in RPMI-1640 media solution without test compound as the control sample. The samples were mixed by agitation and then incubated at 37° C. for 24 h in a 5% CO2-95% humidity incubator. After incubation, the samples were removed from the incubator and 50 μL of a solution containing 20 μM of N-(Ac-DEVD)-N′-ethoxycarbonyl-R110 fluorogenic substrate (SEQ ID NO:1) (Cytovia, Inc.; U.S. Pat. No. 6,335,429), 20% sucrose (Sigma), 20 mM DTT (Sigma), 200 mM NaCl (Sigma), 40 mM Na PIPES buffer pH 7.2 (Sigma), and 500 μg/mL lysolecithin (Calbiochem) was added. The samples were mixed by agitation and incubated at room temperature. Using a fluorescent plate reader (Model 1420 Wallac Instruments), an initial reading (T=0) was made about 1-2 min after addition of the substrate solution, employing excitation at 485 nm and emission at 530 nm, to determine the background fluorescence of the control sample. After about 3 h of incubation, the samples were read for fluorescence as above (T=3 h).
The Relative Fluorescence Unit values (RFU) were used to calculate the sample readings as follows: RFU(T=3h)−Control RFU(T=0)=Net RFU(T=3h)
The activity of caspase cascade activation was determined by the ratio of the net RFU value for 1,3-dimethyl-N-(4-methoxyphenyl)-1H-pyrazolo[3,4-b]quinolin-4-amine to that of control samples. The EC50 (nM) was determined by a sigmoidal dose-response calculation (Prism 2.0, GraphPad Software Inc.).

SMILES | Caspase Activity Ratio | EC50 [µM]
CC(=O)c1cccc(Nc2c3ccccc3nc3c2c(C)nn3C)c1 [Example 5, N-(3-Acetylphenyl)-1,3-dimethyl-1H-pyrazolo[3,4-b]quinolin-4-amine] | 1.0 | > 10
Cc1nn(C)c2nc3ccccc3c(Nc3ccc(C(N)=O)cc3)c12 [Example 6, N-(4-Carbamoylphenyl)-1,3-dimethyl-1H-pyrazolo[3,4-b]quinolin-4-amine] | 1.0 | > 10
COc1ccc(Nc2c3ccccc3nc3c2c(C)nn3C)cn1 [Example 7, 1,3-Dimethyl-N-(6-methoxypyridin-3-yl)-1H-pyrazolo[3,4-b]quinolin-4-amine] | 1.0 | > 10
COc1cccc(Nc2c3ccccc3nc3c2c(C)nn3C)c1 [Example 8, 1,3-Dimethyl-N-(3-methoxyphenyl)-1H-pyrazolo[3,4-b]quinolin-4-amine] | 3.9 | 5.83
COc1ccc(Sc2c3ccccc3nc3c2c(C)nn3C)cc1 [Example 12, 4-(4-Methoxyphenylthio)-1,3-dimethyl-1H-pyrazolo[3,4-b]quinoline] | 9.3 | 4.23
CC(=O)c1ccc(Oc2c3ccccc3nc3c2c(C)nn3C)cc1 [Example 13, 4-(4-Acetylphenoxy)-1,3-dimethyl-1H-pyrazolo[3,4-b]quinoline] | 7.5 | 4.32
CC(C)C(=O)c1cccc(N(C)c2c3c(nc4ccccc24)CCC3)c1 [Example 16, N-(3-Isobutyrylphenyl)-N-methyl-2,3-dihydro-1H-cyclopenta[b]quinolin-9-amine] | 1.1 | > 10
CCOC(=O)c1ccc(N(C)c2c3c(nc4ccccc24)CCC3)cc1 [Example 17, N-(4-(Ethoxycarbonyl)phenyl)-N-methyl-2,3-dihydro-1H-cyclopenta[b]quinolin-9-amine] | 9.3 | 5.12
CC(=O)c1ccc(Nc2c3ccccc3nc3c2cnn3C)cc1 [Example 18, N-(4-Acetylphenyl)-1-methyl-1H-pyrazolo[3,4-b]quinolin-4-amine] | 8.5 | 0.841
CC(=O)c1ccc(Nc2c3ccccc3nc3c2c(C(C)C)nn3C)cc1 [Example 21, N-(4-Acetylphenyl)-1-methyl-3-isopropyl-1H-pyrazolo[3,4-b]quinolin-4-amine] | 1.1 | > 10
CCc1ccc(Nc2c3ccccc3nc3c2c(C)nn3C)cc1 [Example 22, N-(4-Ethylphenyl)-1,3-dimethyl-1H-pyrazolo[3,4-b]quinolin-4-amine] | 1.1 | > 10
CC(=O)Nc1ccc(Nc2c3ccccc3nc3c2c(C)nn3C)cc1 [Example 32, N-(4-Acetamidophenyl)-1,3-dimethyl-1H-pyrazolo[3,4-b]quinolin-4-amine] | 1.1 | > 10
Cc1nn(C)c2nc3ccccc3c(Nc3ccc(S(C)(=O)=O)cc3)c12 [Example 34, 1,3-Dimethyl-N-(4-methylsulfonylphenyl)-1H-pyrazolo[3,4-b]quinolin-4-amine] | 1.1 | > 10
Cc1nn(C)c2nc3ccccc3c(Nc3ccc([S+](C)[O-])cc3)c12 (stereo not drawn) [Example 39, 1,3-Dimethyl-N-(4-methylsulfinylphenyl)-1H-pyrazolo[3,4-b]quinolin-4-amine] | 1.1 | > 10
Cc1nn(C)c2nc3ccccc3c(Nc3ccc(C(=O)C(C)C)cc3)c12 [Example 44, N-(4-Isobutyrylphenyl)-1,3-dimethyl-1H-pyrazolo[3,4-b]quinolin-4-amine] | 4.3 | 0.248
Cc1nn(C)c2nc3ccccc3c(Nc3ccc(N)cc3)c12.Cl [Example 45, N-(4-Aminophenyl)-1,3-dimethyl-1H-pyrazolo[3,4-b]quinolin-4-amine hydrochloride] | 1.1 | > 10
Cc1nn(C)c2nc3ccccc3c(Nc3ccc(N=[N+]=[N-])cc3)c12 [Example 46, N-(4-Azidophenyl)-1,3-dimethyl-1H-pyrazolo[3,4-b]quinolin-4-amine] | 1.1 | > 10
Cc1nn(C)c2nc3ccccc3c(Nc3ccc(C(=O)O)cc3)c12 [Example 47, N-(4-Carboxylphenyl)-1,3-dimethyl-1H-pyrazolo[3,4-b]quinolin-4-amine] | 1.1 | > 10
Cc1nn(C)c2nc3ccccc3c(Nc3ccc(C(=O)C(F)(F)F)cc3)c12 [Example 48, 1,3-Dimethyl-N-(4-(2,2,2-trifluoroacetyl)phenyl)-1H-pyrazolo[3,4-b]quinolin-4-amine] | 1.1 | > 10
CCc1ccccc1Nc1c2c(nc3ccccc13)CCC2 [N-(2-Ethylphenyl)-2,3-dihydro-1H-cyclopenta[b]quinolin-9-amine] | 6.5 | 2.96
COc1ccccc1Nc1c2c(nc3ccccc13)CCC2 [N-(2-Methoxyphenyl)-2,3-dihydro-1H-cyclopenta[b]quinolin-9-amine] | 7.5 | 2.45
COC(=O)c1cccc(Nc2c3c(nc4ccccc24)CCC3)c1 [N-(3-(Methoxycarbonyl)phenyl)-2,3-dihydro-1H-cyclopenta[b]quinolin-9-amine] | 5.6 | 3.04
CC(=O)c1cccc(Nc2c3c(nc4ccccc24)CCC3)c1 [N-(3-Acetylphenyl)-2,3-dihydro-1H-cyclopenta[b]quinolin-9-amine] | 8.8 | 0.304
Cc1ccc2nc3c(c(Nc4cccc(O)c4)c2c1)CCC3 [N-(3-Hydroxyphenyl)-7-methyl-2,3-dihydro-1H-cyclopenta[b]quinolin-9-amine] | 3.7 | 5.53
CCOC(=O)c1ccc(Nc2c3c(nc4ccccc24)CCC3)cc1 [N-(4-(Ethoxycarbonyl)phenyl)-2,3-dihydro-1H-cyclopenta[b]quinolin-9-amine] | 9.5 | 1.18
COC(=O)c1ccc(Nc2c3c(nc4ccccc24)CCC3)cc1 [N-(4-(Methoxycarbonyl)phenyl)-2,3-dihydro-1H-cyclopenta[b]quinolin-9-amine] | 4.8 | 0.34
CC(=O)c1ccc(Nc2c3ccccc3nc3c2c(C)nn3C)cc1 [N-(4-Acetylphenyl)-1,3-dimethyl-1H-pyrazolo[3,4-b]quinolin-4-amine] | 4.2 | 0.314
